In US20230107983A1, “COMPOUND ISOLATED FROM TORILIDIS FRUCTUS, AND ANTICANCER PHARMACEUTICAL COMPOSITION CONTAINING SAME AS ACTIVE INGREDIENT” (PHARMA-GENE CO., LTD., priority 2020, published 2023):

Key:
[1] = test system: gastric cancer(AGS) cell line; assay: WST-1 assay, cell viability of gastric cancer cell line; assay type: cell-based; conditions: 10-100 µg/Mℓ, 24 hours, FIG. 4
Experimental: (§1) The cytotoxicity of the Tr-9 compound to six cancer cell lines was confirmed. Lung cancer(A549), gastric cancer(AGS), liver cancer(Hep3B)), breast cancer(MDA-MB-231), colorectal cancer(HCT116) and pancreatic cancer(BxPC-3) cell lines and fibroblasts were aliquoted in a 96-well plate in an amount of 5×10^3 cells/well, and the novel compound Tr-9 was treated thereto at a concentration of 10, 20, 40, 60, 80, 100 µg/Mℓ for 24 hours, respectively. Lung cancer cell line was further treated at a concentration of 100 µg/Mℓ for 24 hours, 48 hours and 72 hours.
(§2) Then, the amount of living cells was measured using WST(high sensitive Water Soluble Tetrazolium salt). WST reacts with dehydrogenase in living cells and produces orange-colored watersoluble formazan. Since dehydrogenase that reacts with WST is an enzyme present in the mitochondrial electron transport chain of metabolically active cells and is effective only in living cells, the production of formazan is proportional to the number of living cells. Therefore, the absorbance at 450 nm was measured to confirm the cell viability through the formation of formazan.

[2] = test system: liver cancer(Hep3B) cell line; assay: WST-1 assay, cell viability of liver cancer cell line; assay type: cell-based; conditions: 10-100 µg/Mℓ, 24 hours, FIG. 6
Experimental: as §1, §2

[3] = test system: colorectal cancer(HCT116) cell line; assay: WST-1 assay, cell viability of colorectal cancer cell line; assay type: cell-based, human; conditions: 10-100 µg/Mℓ, 24 hours, FIG. 7
Experimental: as §1, §2

[4] = test system: Lung cancer(A549) cell line; assay: WST-1 assay, cell viability of lung cancer cell line; assay type: cell-based, human; conditions: 10-100 µg/Mℓ, 24 hours, FIG. 3
Experimental: as §1, §2

Human fibroblast = assay: WST-1 assay, cell viability of fibroblasts (normal cells); assay type: cell-based; conditions: 10-100 µg/Mℓ, 24 hours, FIG. 9
Experimental: as §1, §2

[5] = test system: breast cancer(MDA-MB-231) cell line; assay: WST-1 assay, cell viability of breast cancer cell line; assay type: cell-based; conditions: 10-100 µg/Mℓ, 24 hours, FIG. 5
Experimental: as §1, §2

[6] = Change in mouse weight, A549 xenograft, oral administration; assay type: in vivo, nude mouse; parameters: Change in mouse weight: unit not given here; conditions: once a day; for difference in body weight according to the administration of the drugs: day 2 to day 23
Experimental: The Tr-9 was dissolved in sterile PBS and 1 mM Tr-9 200 µℓ was orally administered per mouse once a day, and all animals were weighed immediately before the start of drug (Tr-9) administration and 10 times in total from day 2 to day 23 after cancer cell transplantation (Table 1).
(§3) In Table 1 above, data values are the mean ± standard deviation. After measuring the body weight, the animals were killed using CO2 gas, and the tumor was separated and the size was measured in 3 directions using a vernier caliper for each animal. Then, the change in tumor size was expressed as a calculated value of (length × width × height)/2 (Table 2).

[7] = test system: human lung cancer cells (A549); assay: Nude mouse xenograft model of human lung cancer cells, intraperitoneal administration; assay type: in vivo; conditions: for tumor size compared to the control group: after day 19
Experimental: Anticancer activity against lung cancer according to the intraperitoneal administration of Tr-9 was confirmed through a nude mouse xenograft model of human lung cancer cells (A549). In Example 4, it was carried out using the same animal model and method as the oral administration, except that it was administered intraperitoneally.
Specific pathogen-free (SPF) nude mice of the BALB/C strain were used as the animal model. Animals were bred in the animal room of Daedeok Campus of Hannam University maintained at a temperature of 23±3° C., relative humidity of 55±15%, ventilation frequency of 10-20 times/hr, lighting time of 12 hours(lights on at 8 am and off at 8 pm) and illuminance of 150 to 300 Lux.
For cancer cell transplantation, all cells were collected and counted on the last day of culture, and the concentration of human lung cancer cell line A549 was adjusted to 5×10^6 cells/ml using PBS. The adjusted cell culture solution was injected subcutaneously into the auxiliary region between the right scapula and chest wall at 0.2 ml (1×10^6 cells/mouse) per mouse.
The Tr-9 was dissolved in sterile PBS and 1 mM Tr-9 200 µℓ was intraperitoneally administered per mouse once a day, and all animals were weighed immediately before the start of drug (Tr-9) administration and 10 times in total from day 2 to day 23 after cancer cell transplantation (Table 4).
as §3, with “4” for “1”, “4).” for “2).”
Tumor size increase is (Δt)= Vt—Vo, wherein Vt is the value of measuring the tumor size by date, and Vo is the value of measuring the initial tumor size.

[8] = test system: pancreatic cancer(BxPC-3) cell line; assay: WST-1 assay, cell viability of pancreatic cancer cell line; assay type: cell-based; conditions: 10-100 µg/Mℓ, 24 hours, FIG. 8
Experimental: as §1, §2

[9] = intraperitoneal once a day, Day 0, table title: Change in tumor size
[10] = intraperitoneal once a day, Day 2, table title: Change in tumor size
[11] = intraperitoneal once a day, Day 2, vs control
[12] = intraperitoneal once a day, Day 5, table title: Change in tumor size
[13] = intraperitoneal once a day, Day 5, vs control
[14] = intraperitoneal once a day, Day 7, table title: Change in tumor size
[15] = intraperitoneal once a day, Day 7, vs control
[16] = intraperitoneal once a day, Day 9, table title: Change in tumor size
[17] = intraperitoneal once a day, Day 9, vs control
[18] = intraperitoneal once a day, Day 12, table title: Change in tumor size
[19] = intraperitoneal once a day, Day 12, vs control
[20] = intraperitoneal once a day, Day 14, table title: Change in tumor size
[21] = intraperitoneal once a day, Day 14, vs control
[22] = intraperitoneal once a day, Day 16, table title: Change in tumor size
[23] = intraperitoneal once a day, Day 16, vs control
[24] = intraperitoneal once a day, Day 19, table title: Change in tumor size
[25] = intraperitoneal once a day, Day 19, vs control
[26] = intraperitoneal once a day, Day 21, table title: Change in tumor size
[27] = intraperitoneal once a day, Day 21, vs control
[28] = intraperitoneal once a day, Day 23
[29] = intraperitoneal once a day, Day 23, table title: Change in tumor size
[30] = intraperitoneal once a day, Day 23, vs control

CC(=O)OC(C)(C)C1CC2=C(C)C(=O)CC2C(C)CC1OC(=O)CC(C)C (stereo not shown) [Tr-9]
cell viability [1]: decreases the cell viability | cell viability [2]: decreases the cell viability | cell viability [3]: decreases the cell viability | cell viability [4]: decreases the cell viability | cell viability of human fibroblast (Human fibroblast): little change in the cell viability | cell viability [5]: decreases the cell viability | Change in mouse weight ([6]; 0 Day after drug treatment): 100.0 ±0.0 | Change in mouse weight ([6]; 2 Days after drug treatment): 95.6 ±1.7 | Change in mouse weight ([6]; 5 Days after drug treatment): 96.9 ±1.8 | Change in mouse weight ([6]; 7 Days after drug treatment): 99.5 ±1.5 | Change in mouse weight ([6]; 9 Days after drug treatment): 102.3 ±2.8 | Change in mouse weight ([6]; 12 Days after drug treatment): 98.6 ±1.5 | Change in mouse weight ([6]; 14 Days after drug treatment): 100.7 ±3.6 | Change in mouse weight ([6]; 16 Days after drug treatment): 102.5 ±3.8 | Change in mouse weight ([6]; 19 Days after drug treatment): 103.6 ±5.5 | Change in mouse weight ([6]; 21 Days after drug treatment): 102.9 ±5.7 | Change in mouse weight ([6]; 23 Days after drug treatment): 104.7 ±5.6 | difference in body weight according to the administration of the drugs [6]: almost no difference in body weight | tumor size further reduced compared to the group intraperitoneally administered with the torilin ([7]; intraperitoneal): about 17% | Tumor size increase (Vt−V0) [7, 9]: 0.0±0.0 | Tumor size increase (Vt−V0) [7, 10]: 7.0±5.4 | Inhibition rate (tumor size increase) [7, 11]: 48.5% | Tumor size increase (Vt−V0) [7, 12]: 13.8±8.5 | Inhibition rate (tumor size increase) [7, 13]: 34.0% | Tumor size increase (Vt−V0) [7, 14]: 19.6±10.1 | Inhibition rate (tumor size increase) [7, 15]: 42.2% | Tumor size increase (Vt−V0) [7, 16]: 24.4±7.1 | Inhibition rate (tumor size increase) [7, 17]: 46.7% | Tumor size increase (Vt−V0) [7, 18]: 61.1±7.0 | Inhibition rate (tumor size increase) [7, 19]: 30.5% | Tumor size increase (Vt−V0) [7, 20]: 116.4±15.1 | Inhibition rate (tumor size increase) [7, 21]: 22.7% | Tumor size increase (Vt−V0) [7, 22]: 198.3±22.8 | Inhibition rate (tumor size increase) [7, 23]: 24.6% | Tumor size increase (Vt−V0) [7, 24]: 309.2±39.5 | Inhibition rate (tumor size increase) [7, 25]: 39.6% | Tumor size increase (Vt−V0) [7, 26]: 415.2±53.1 | Inhibition rate (tumor size increase) [7, 27]: 38.9% | Tumor weight at Day 23 [7, 28]: 0.641 ± 0.1 g | Tumor size increase (Vt−V0) [7, 29]: 531.8±46.5 | Inhibition rate (tumor size increase) [7, 30]: 44.2% | tumor size compared to the control group ([7]; intraperitoneal): statistically significantly smaller | cell viability [8]: decreases the cell viability

C/C=C(/C)C(=O)O[C@@H]1C[C@H](C)[C@H]2CC(=O)C(C)=C2C[C@@H]1C(C)(C)OC(C)=O [Torilin, torilin, reference compound]
Change in mouse weight ([6]; 0 Day after drug treatment): 100.0 ±0.0 | Change in mouse weight ([6]; 2 Days after drug treatment): 100.0 ±3.0 | Change in mouse weight ([6]; 5 Days after drug treatment): 97.2 ±2.5 | Change in mouse weight ([6]; 7 Days after drug treatment): 99.5 ±3.5 | Change in mouse weight ([6]; 9 Days after drug treatment): 105.7 ±7.0 | Change in mouse weight ([6]; 12 Days after drug treatment): 101.0 ±6.2 | Change in mouse weight ([6]; 14 Days after drug treatment): 101.8 ±5.5 | Change in mouse weight ([6]; 16 Days after drug treatment): 103.9 ±5.8 | Change in mouse weight ([6]; 19 Days after drug treatment): 101.1 ±5.8 | Change in mouse weight ([6]; 21 Days after drug treatment): 102.9 ±6.0 | Change in mouse weight ([6]; 23 Days after drug treatment): 105.0 ±7.1 | difference in body weight according to the administration of the drugs [6]: almost no difference in body weight | Tumor size increase (Vt−V0) [7, 9]: 0.0±0.0 | Tumor size increase (Vt−V0) [7, 10]: 13.2±13.2 | Inhibition rate (tumor size increase) [7, 11]: 2.9% | Tumor size increase (Vt−V0) [7, 12]: 19.91±0.4 | Inhibition rate (tumor size increase) [7, 13]: 4.8% | Tumor size increase (Vt−V0) [7, 14]: 28.9±12.5 | Inhibition rate (tumor size increase) [7, 15]: 14.7% | Tumor size increase (Vt−V0) [7, 16]: 38.0±8.1 | Inhibition rate (tumor size increase) [7, 17]: 17.0% | Tumor size increase (Vt−V0) [7, 18]: 75.1±10.7 | Inhibition rate (tumor size increase) [7, 19]: 14.6% | Tumor size increase (Vt−V0) [7, 20]: 127.0±25.8 | Inhibition rate (tumor size increase) [7, 21]: 15.6% | Tumor size increase (Vt−V0) [7, 22]: 210.5±44.8 | Inhibition rate (tumor size increase) [7, 23]: 19.9% | Tumor size increase (Vt−V0) [7, 24]: 394.8±93.5 | Inhibition rate (tumor size increase) [7, 25]: 22.9% | Tumor size increase (Vt−V0) [7, 26]: 525.2±99.1 | Inhibition rate (tumor size increase) [7, 27]: 22.7% | Tumor weight at Day 23 [7, 28]: 0.97 ± 0.183 g | Tumor weight reduction rate compared to control group [7, 28]: 28.6% | Tumor size increase (Vt−V0) [7, 29]: 695.0±110.6 | Inhibition rate (tumor size increase) [7, 30]: 27.0% | tumor size compared to the control group ([7]; intraperitoneal): statistically significantly smaller
